Assay results published in patent publication US9551711B2, “Compositions and methods for detecting nitration of PKG-1α and methods of use thereof” (Augusta University Research Institute, Inc., priority 2013, dated 2017).

Assays:
[1] = system: pulmonary artery smooth muscle cells (PASMC); experiment: PASMC phenotype markers MYH, Calponin-1, Vimentin (Western blot); assay type: cell-based, lamb; details: WT-PKG-1α transfected PASMC; SIN-1 500 μM, 48 h
Description: To assess the effect of nitration on pulmonary arterial smooth muscle cell (PASMC) phenotype, PASMC were transiently transfected with expression plasmids containing WT-PKG-1α, Y247F-PKG-1α, or PDEST40 (as a control) for 20 h. Cells were then exposed or not to SIN-1 (500 μM, 48 h) and the effect on synthetic and contractile markers determined. The levels of myosin heavy chain (MYH, FIG. 3A), Calponin-1 (FIG. 3B), and Vimentin (FIG. 3C) were determined. The blots were then stripped and re-probed for β-actin to normalize for protein loading. PASMC were also subjected to immunohistochemistry using antibodies to SM22-α (5 μg/ml) and PCNA (1 μg/ml). Relevant secondary antibodies linked to Alexa Fluor 488 (green) were then applied. DAPI was also used to stain (blue) the cell nuclei.

[2] = target: T1, PKG-1α (Homo sapiens, UniProt Q13976); experiment: [3H]cGMP binding assay on immunopurified PKG-1α; parameters: an expression plasmid containing a full length WT-PKG-1α cDNA; made in house; host or cells: HEK-293T; the results paragraph b304 says PASMC; details: WT-PKG-1α; SIN-1 treatment
T1 sequence (Q13976 2-671): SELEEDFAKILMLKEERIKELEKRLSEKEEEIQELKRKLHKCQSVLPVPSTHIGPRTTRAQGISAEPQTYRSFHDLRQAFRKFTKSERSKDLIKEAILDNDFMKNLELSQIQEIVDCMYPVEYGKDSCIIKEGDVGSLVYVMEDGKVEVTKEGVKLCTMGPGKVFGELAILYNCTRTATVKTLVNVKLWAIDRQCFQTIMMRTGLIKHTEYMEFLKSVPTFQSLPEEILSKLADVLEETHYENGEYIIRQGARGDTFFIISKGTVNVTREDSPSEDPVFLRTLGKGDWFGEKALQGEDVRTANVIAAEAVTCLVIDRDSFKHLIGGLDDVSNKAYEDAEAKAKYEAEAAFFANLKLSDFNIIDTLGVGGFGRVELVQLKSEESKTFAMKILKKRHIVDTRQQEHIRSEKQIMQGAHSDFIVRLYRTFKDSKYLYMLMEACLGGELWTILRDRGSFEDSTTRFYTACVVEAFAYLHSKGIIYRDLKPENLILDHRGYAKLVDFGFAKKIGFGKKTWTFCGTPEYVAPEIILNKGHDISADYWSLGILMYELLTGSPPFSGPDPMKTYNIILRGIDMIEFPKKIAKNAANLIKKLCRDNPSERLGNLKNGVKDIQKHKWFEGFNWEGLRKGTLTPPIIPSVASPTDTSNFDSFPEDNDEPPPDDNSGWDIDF
Description: HEK-293T cells were transiently transfected with either the WT-PKG-1α or the Y247FPKG-1α cDNA using Effectene transfection reagent (Qiagen), according to the manufacturer's instructions. Briefly, the cells were split the day before the transfection to low cell densities (25%) and were transfected 24 h later. After 48 h of transfection, the cells were incubated in DMEM serum free media containing 1% FBS and antibiotics for 4 h and then treated with or without SIN-1 (500 μM), for 30 min. This method produced an approximate 70% transfection efficiency of HEK-293T cells, as measured using green fluorescent protein vectors. […]
The batches of supernatant were pooled, and 2 μg of anti-PKG-1α antibody per mg of protein were added to the extract and rocked at 4° C. […] After 15 min of agitation at 4° C., the beads were pelleted by centrifugation, and the supernatant containing the PKG-1α protein was collected, quantified using Bradford reagent, and stored at −80° C.
To assay the binding of cGMP to WT- and Y247F-PKG-1α the enzymes were saturated with cGMP by incubating 50 μl aliquots of the diluted PKG constructs for 60 min at room temperature with 50 μl of [^3H]cGMP and 150 μl of cGMP-binding assay mixture (25 mM K2HPO4, 25 mM KH2PO4, 1 mM EDTA, pH 6.8, 2M NaCl, 200 μM 3-isobutyl-1-methylxanthine). […] The dissociation constant (Kd) values were determined using GraphPad Prism graphics. […]

maximal [3H]cGMP binding [2]: significantly attenuated
Substance: 3-morpholinosydnonimine N-ethylcarbamide [SIN-1]
expression of contractile marker Calponin-1 [1]: decreased
expression of contractile marker MYH [1]: decreased
expression of proliferative marker Vimentin [1]: increased
